Results reported in patent US5057512A, “3-amino-2-oxo-azetidine-1-sulfonic acids” (Uclaf; Roussel, priority 1981, dated 1991).

Key:
Assay in all cases: M.I.C., dilutions in liquid medium
Assay type in all cases: cell-based
[1] = test system: Klebsiella aerogenes 1082 E; settings: Klebsiella aerogenes, 1082E, 37° C.
Procedure: (§1) A. Activity in Vitro-Method of Dilutions in Liquid Medium
(§2) A series of tubes was prepared in which the same amount of sterile nutritive medium was distributed and there was distributed in each tube increasing amounts of the test product. Then, each tube was inoculated with a bacterial strain and after incubation for twenty-four or forty-eight hours in an oven at 37° C., the inhibition of the growth was evaluated by trans-illumination to determine the minimum inhibiting concentrations (M.I.C.), expressed in μg/ml.

[2] = test system: Escherichia coli UC 1894; settings: Escherichia coli, UC1894, 37° C.
Procedure: as §1, §2

[3] = test system: Providencia Du 48; settings: Providencia, DU48, 37° C.
Procedure: as §1, §2

[4] = test system: Klebsiella Pneumoniae Exp. 52145; settings: Klebsiella pneumoniae, 37° C.
Procedure: as §1, §2

[5] = test system: Escherichia coli 0 78; settings: 37° C.
Procedure: as §1, §2

[6] = test system: Escherichia coli T E M; settings: Escherichia coli, 37° C.
Procedure: as §1, §2

[7] = test system: Salmonella typhimurium MZ 11; settings: Salmonella enterica, TYPHIMURIUM, 37° C.
Procedure: as §1, §2

[8] = test system: Enterobacter cloacae 1321 E; settings: Enterobacter cloacae, 1321E, 37° C.
Procedure: as §1, §2

[9] = test system: Serratia Resistant to Gentamycine 2 532; settings: Serratia, 37° C.
Procedure: as §1, §2

[10] = test system: Pseudomonas aeruginosa 1771 m; settings: Pseudomonas aeruginosa, 1771M, 37° C.
Procedure: as §1, §2

[11] = test system: Klebsiella aerogenes 1522 E; settings: Klebsiella aerogenes, 1522E, 37° C.
Procedure: as §1, §2

[12] = test system: Escherichia coli 1507 E; settings: Escherichia coli, 1507E, 37° C.
Procedure: as §1, §2

[13] = test system: Proteus vulgaris (indol +) A 232; settings: Proteus vulgaris, 37° C.
Procedure: as §1, §2

[14] = test system: Escherichia coli DC 2; settings: Escherichia coli, DC2, 37° C.
Procedure: as §1, §2

[15] = test system: Proteus mirabilis (indol -) A 235; settings: Proteus mirabilis, 37° C.
Procedure: as §1, §2

[16] = test system: Escherichia coli DC 0; settings: Escherichia coli, 37° C.
Procedure: as §1, §2

[17] = test system: Salmonella typhimurium 420; settings: Salmonella enterica, 37° C.
Procedure: as §1, §2

[18] = test system: Escherichia Coli Resistant to Gentamycine Tobramycine R55 123 D; settings: 37° C.
Procedure: as §1, §2

[19] = test system: Klebsiella Pneumoniae 2536 Resistant Gentamycine; settings: 37° C.
Procedure: as §1, §2

[20] = test system: Escherichia Coli Resistant to Tetracycline AT CC 11 303; settings: 37° C.
Procedure: as §1, §2

[21] = test system: Escherichia Coli Sensitive to Tetracycline 7624; settings: 37° C.
Procedure: as §1, §2

[22] = Escherichia coli, 078, 24 h, 24 H
[23] = Escherichia coli, 078, 48 h, 48 H

SMILES	MIC ([2]; 24 H) [µg/mL]	MIC ([2]; 48 H) [µg/mL]	MIC ([3]; 24 Hr.) [µg/mL]	MIC ([3]; 48 Hr.) [µg/mL]	MIC ([4]; 24 h) [µg/mL]	MIC ([4]; 48 h) [µg/mL]	MIC [5, 22] [µg/mL]	MIC [5, 23] [µg/mL]	MIC ([6]; 24 h) [µg/mL]	MIC ([6]; 48 h) [µg/mL]	MIC ([7]; 24 h) [µg/mL]	MIC ([7]; 48 h) [µg/mL]	MIC ([8]; 24 H) [µg/mL]	MIC ([8]; 48 H) [µg/mL]	MIC ([9]; 24 h) [µg/mL]	MIC ([9]; 48 h) [µg/mL]	MIC ([13]; 24 Hr.) [µg/mL]	MIC ([13]; 48 Hr.) [µg/mL]	MIC ([15]; 24 h) [µg/mL]	MIC ([15]; 48 h) [µg/mL]	also measured
CC(C)(ON=C(C(=O)NC1C(=O)N(S(=O)(=O)O)C1CF)c1csc(N)n1)C(=O)O (mixture of isomers) [Example 6, Racemate of syn isomer of cis 4-fluoromethyl-3-[2-(2-amino-4-thiazolyl)-2-(1-carboxy-1-methyl-ethoxy)-imino-acetamido]-2-oxo-azetidine-1-sulfonic acid]	0.08	0.08	0.15	0.15	0.6	0.6	0.3	0.3	0.6	0.6	0.6	0.6	0.3	0.3	0.3	0.3	≤ 0.04	≤ 0.04	≤ 0.04	≤ 0.04	MIC ([1]; 24 h): 0.6 µg/mL; MIC ([1]; 48 h): 0.6 µg/mL; MIC ([10]; 24 H): 0.3 µg/mL; MIC ([10]; 48 H): 0.6 µg/mL; MIC ([11]; 24 h): 0.3 µg/mL; MIC ([11]; 48 h): 0.3 µg/mL; MIC ([12]; 24 h): 0.6 µg/mL; MIC ([12]; 48 h): 0.6 µg/mL; MIC ([14]; 24 H): 0.3 µg/mL; MIC ([14]; 48 H): 0.3 µg/mL; MIC ([16]; DC0, 24 h, 24 H): 0.6 µg/mL; MIC ([16]; DC0, 48 h, 48 H): 0.6 µg/mL
Nc1nc(C(=NO)C(=O)NC2C(=O)N(S(=O)(=O)O)C2CCl)cs1 (mixture of isomers) [Example 4, Racemate of syn isomer of cis 4-chloromethyl-3-[2-(2-amino-4-thiazolyl)-2-hydroxyimino-acetamido]-2-oxo-azetidine-1-sulfonic acid]	–	–	0.6	1.2	5	5	–	–	–	–	–	–	–	–	5	5	0.6	0.6	0.6	1.2	MIC ([17]; 24 Hr.): 1.2 µg/mL; MIC ([17]; 48 Hr.): 2.5 µg/mL; MIC ([18]; 24 Hr.): 0.6 µg/mL; MIC ([18]; 48 Hr.): 0.6 µg/mL; MIC ([19]; 24 Hr.): 2.5 µg/mL; MIC ([19]; 48 Hr.): 2.5 µg/mL; MIC ([20]; 24 Hr.): 0.6 µg/mL; MIC ([20]; 48 Hr.): 0.6 µg/mL; MIC ([21]; 24 Hr.): 0.6 µg/mL; MIC ([21]; 48 Hr.): 0.6 µg/mL
Nc1nc(C(=NOC(F)F)C(=O)NC2C(=O)N(S(=O)(=O)O)C2CF)cs1 (mixture of isomers) [Example 8, Racemate of the syn isomer of cis 4-fluoromethyl-3-[2-(2-amino-4-thiazolyl)-2-difluoromethoxyimino-acetamido]-2-oxo-azetidine-1-sulfonic acid]	≤ 0.04	≤ 0.08	0.3	0.3	0.3	0.3	0.08	0.08	0.15	0.15	0.08	0.08	0.08	0.08	0.6	0.6	≤ 0.04	≤ 0.04	≤ 0.04	≤ 0.04	MIC ([11]; 24 h): 0.08 µg/mL; MIC ([11]; 48 h): 0.08 µg/mL; MIC ([12]; 24 h): ≤ 0.04 µg/mL; MIC ([12]; 48 h): ≤ 0.04 µg/mL; MIC ([14]; 24 H): ≤ 0.04 µg/mL; MIC ([14]; 48 H): ≤ 0.04 µg/mL; MIC ([16]; DC0, 24 h, 24 H): 0.08 µg/mL; MIC ([16]; DC0, 48 h, 48 H): 0.08 µg/mL
